This note sets out measurements from patent publication US20100093641A1, “SILK PROTEIN-MIMICKING PEPTIDES AND COMPOSITIONS FOR PREVENTING OR TREATING CRANIAL NEUROPATHIES COMPRISING THE SAME” (BRAINGUARD CO.,LTD., priority 2006, published 2010).

No end group written: not given here.

One test concerns SK-N-SH neuronal cells. The experiment in a line: Neuronal damage caused by high glucose level. In kind it is cell-based, human. The following applies: 35 mM glucose, 3 hr; FIG. 9a. On the procedure: Diabetes characterized by high level of glucose causes events to damage cells and tissues. This experiment is to analyze neuroprotective activities of SMPs on SK—N—SH neuronal cells in high level of glucose (35 mM).

For test [1], the system named is SK-N-SH cells. Nature of the test: Reactive oxygen species by DCF-DA staining against amyloid beta. In kind it is cell-based, human. The following applies: 10 fM for 2 hr, then 20 μM amyloid beta; FIG. 7a. The method, then: For identifying molecular mechanisms governing neuroprotective effects of the present peptides, reactive oxygen species (ROS) known to involve in neurotoxicity of amyloid beta were analyzed. Using a DCF-DA staining method, quantitative determination of reactive oxygen species was performed and microscopic observation was performed.
SK—N—SH cells (ATCC) were first treated with 10 fM SMPs for 2 hr and then with 20 μM amyloid beta protein. Afterwards, cells were incubated for 30 min at 37° C. with 10 μM DCF-DA (6-carboxy-2′,7′-dichloro-dihydrofluoresceine diacetate, dicarboxym-ethylester) dissolved in HCSS buffer solution (20 mM HEPES, 2.3 mM CaCl2, 120 mM NaCl, 10 mM NaOH, 5 mM KC1, 1.6 mM MgCl2, 15 mM glucose) and 2% Pluronic F-127 (suspension additive).

For test [2], the system named is SK-N-SH cells. The experiment in a line: Nuclear fragmentation by Hoechst 33258 staining against amyloid beta. In kind it is cell-based, human. The following applies: 10 fM for 2 hr, then 20 μM amyloid beta for 24 hr; FIG. 6a. On the procedure:
The morphological changes of nuclear chromosomes by amyloid beta were observed by staining with DNA-binding fluorochrome bis-benz (Hoechst 33258 dye). SK—N—SH cells were incubated with 10 fM SMPs for 2 hr and then with 20 μM amyloid beta for 24 hr. 0.5-3.0×10^6 cells treated were centrifuged at 300×g for 10 min and washed with PBS, followed by fixation with 50 μl paraformaldehyde for 10 min at room temperature. After washing with PBS, cells were incubated with 16 μg/ml bis-benzimide in PBS (15 μl) for 15 min at room temperature and their 10 μl-aliquot was placed on a slid glass, followed by the observation of apoptotic nuclear chromosome under a fluorescence microscope.

A further test relates to p-Akt. The experiment in a line: p-Akt level on electrophoresis under high glucose. In kind it is cell-based, human. To be noted: 35 mM glucose; FIG. 9b. The method, then: To identify molecular mechanisms governing neuroprotective activities of the present peptides on apoptosis of neuronal cells caused by high glucose level, p-Akt and p-JNK were analyzed on electrophoresis.

The subject of test [3] is SK-N-SH cells. The experiment in a line: Mitochondrial membrane potential by TMRE staining against amyloid beta. In kind it is cell-based, human. To be noted: 10 fM for 2 hr, then 20 μM amyloid beta for 6 hr; FIGS. 8a-8c. An excerpt: We examined the influence of the present peptides on subcellular mitochondria to play a crucial role in cellular energy generation. It have been already reported that the amyloid beta protein induces elevation of reactive oxygen species in cells and simultaneously results in nuclear fragmentation, dysfunction of mitochondrial membrane and loss of mitochondrial functions. In this regard, we examined the influence of the present peptides on mitochondrial functions relating closely to cell viability.
Using a fluorescent staining with TMRE (tetramethyl rhodamine-ethylester, Molecular Probe), the disruption of mitochondrial membrane potential was measured. The positively charged TMRE is penetrated into mitochondrial membrane with help of mitochondrial membrane potential, and the fluorescent intensities indicate the maintenance of mitochondrial membrane potential. SK—N—SH cells (ATCC) were first treated with 10 fM SMPs for 2 hr and then with 20 μM amyloid beta protein for 6 hr. Afterwards, cells were incubated for 15 min at 37° C. with 100 nM TMRE and the fluorescent intensities were measured using a fluoremetry at excitation wavelength of 549 nm and emission wavelength of 574 nm. The fluorescent images were taken using a fluorescence microscope (Olympus IX70) and CCD camera.

The test system of test [4] is SK-N-SH cells. Nature of the test: MTT reduction cell viability against amyloid beta. In kind it is cell-based, human. The following applies: 10 fM for 2 hr before amyloid beta, 48 hr; FIG. 6b. An excerpt: The survival rate and nuclear fragmentation of neuronal cells indicating apoptosis of neuron were examined to verify the neuroprotective effects of SMPs against neurotoxic effects of the amyloid beta protein. For identifying mechanisms governing the protective effects against amyloid beta in animal tests, neurotoxic effects and nuclear damages in neuronal cell lines were examined. The substance “cosmo” used in this experiment was obtained by a preparation process identical to that for the substance MD.
The MTT reduction analysis was carried out. The human neuroblastoma cells, SK—N—SH cells (ATCC) were plated on PEI-coated 96-well plates at a density of 40,000 cells/well. The cells were cultured in DMEM supplemented with 10% FBS (fetal bovine serum). 2-hr before experiments, the medium was changed with low serum medium (DMEM with 1% FBS) and the cells were incubated with each test substance. […] Formazan precipitates formed by MTT reduction were dissolved in the solution (0.1 N HCl in anhydrous isopropanol), and absorbance at 570 nm was determined by ELISA
Reader. The value of the control group (only containing solvent) was determined as 100% and that of 0.9% Triton X-100-treated group as 0%. The value of each sample was relatively determined with referring the reference values.

Test [5] relates to Alzheimer's disease animal models. Nature of the test: Passive avoidance test after amyloid beta injection. In kind it is in vivo, rat. The following applies: amyloid beta injected; 5 mg/kg i.p. for 2 weeks; FIG. 4. The method, then: This experiment was carried out according to the passive avoidance test to examine whether the SMPs prevents the declines in learning and memory abilities by neurotoxic substances. Before performing learning test, the amyloid beta protein was injected into animals through the ventral lateral region using a stereotaxic system, resulting in establishing Alzheimer's disease animal models. 3-day later, 5 mg/kg of SMPs were intraperitoneally administered for 2 weeks. Automated shuttle box (Model PACS-30, Columbus Instruments International Company) was used as test device. The shuttle box was divided into two rooms with the same area (19″ L×9″ W×10.875″ H) by middle door (3″ L×2.625″ W), and their floors were equipped with current-generating device. Each room might be lighted a 20 W light bulb on hinged plexiglass lid. A white rat might enter a dark room through the door. Noise was control below 60 dB and the test was performed in the dark room. The rat was initially placed in a lighted room and moved to a dark room when the door was opened. At this time, the door was automatically closed and light was turned off. […] Two weeks after injection of the amyloid beta protein through the ventral lateral region (8 nmol/ 5 μl in normal saline), the rat was placed in the lighted room, and time required for the rat to move to the dark room was measured. […]

In test [6] the test system is PD animal models having apoptotic dopaminergic neuronal cells by 6-OHDA. Nature of the test: Amphetamine-induced asymmetric rotation in 6-OHDA Parkinson's disease animal models. In kind it is in vivo. To be noted: 6-OHDA mice; SMPs 5 mg/kg intraperitoneally for 2 weeks; FIG. 2. The method, then: The protection efficacy of the present peptides was tested by behavior experiments using animal models. The mice with damaged dopaminergic neurons by 6-OHDA were administered with amphetamine to induce asymmetric rotation. Then, the present peptides were examined to recover normal states.
5-week old male mice (SAMTAKO, Korea) were used. Four-week old mice were purchased and adapted for one week, followed by establishing animal models using a stereotaxic system (KOFT, CA, USA). In these experiments, 6-OHDA (3 μg/μl in normal saline) was injected into the desired region (0.0 mm posterior to bregma; 2.0 mm lateral to midline; 3.0 mm ventral to the dura) by use of the stereotaxic system, resulting in establishment of animal models. 6-OHDA was injected into substantial nigra in which neurites of dopminergic neurons are connected and sustained death of dopminergic neurons is well induced. Two weeks after 6-OHDA injection, animals were tested for amphetamine-induced turning behavior (amphetamine at 0.1 mg/kg i.p.). The mice were tested for […]. Animals with net rotational asymmetry of at least 400 full turns were selected for test. 5 mg/kg of SMPs were intraperitoneally administered for 2 weeks and their effects were examined by behavior tests. The asymmetric rotation was rapidly relieved with the lapse of time.

The test system of another test is dopaminergic neurons. The experiment in a line: Dopaminergic neuronal cell death induced by 6-OHDA, methyl green histochemical staining. In kind it is in vivo. The following applies: 6-OHDA injected mice; SMPs 5 mg/kg intraperitoneally for 2 weeks; FIG. 1. The method, then:
To analyze neuroprotective effects of the present peptides SMPs, their influence on the death of dopaminergic neurons, a main cause of Parkinson's disease, was tested. 6-OHDA (6-hydroxydopamine) was injected into brain tissues using a stereotaxic system and the death of dopaminergic neurons was observed by histochemcial staining.
5-week old male mice (SAMTAKO, Korea) were used. Four-week old mice were purchased and adapted for one week, followed by inducing the death of neuronal cells using a stereotaxic system (KOFT, CA, USA). In these experiments, 6-OHDA (3 μg/μl in normal saline) was injected into the desired region (0.0 mm posterior to bregma; 2.0 mm lateral to midline; 3.0 mm ventral to the dura) by use of the stereotaxic system, resulting in establishment of animal models. 6-OHDA was injected into substantial nigra in which neurites of dopminergic neurons are connected and sustained death of dopminergic neurons is well induced. After injection of 6-OHDA, 5 mg/kg of SMPs were intraperitoneally administered for 2 weeks. Thereafter, the test mice were fixed using 4% paraformaldehyde. Following the dissection of brain tissues from test mice, they were washed with PBS containing 4% paraformaldehyde for 24 hr and then dehydrated for 4 days using 15%, 20%, 25% and 30% sucrose solutions. The brain tissues were sliced by a freezing microtome. […]

Regarding GAGAGVGY [SMP-1, GAGAGVGY], in the test with SK-N-SH neuronal cells, the “inhibition of apoptosis caused by high glucose level” value is recorded as “effectively inhibits apoptosis”. Also, in the test on SK-N-SH cells [1], the “levels of reactive oxygen species” value is “decrease in levels of reactive oxygen species at similar extent”. Also, in the test with SK-N-SH cells [2], the nuclear fragmentation entry is recorded as “greatly decreased”. Further, the “level of p-Akt” value with p-Akt was “highest level of p-Akt”. For the same compound, in the test with SK-N-SH cells [3], the “abnormality of mitochondrial membrane (TMRE fluorescence)” value is “little or no abnormality of mitochondrial membrane”. For the same compound, the “inhibition of apoptosis of neuronal cells (cell viability, MTT)” value with SK-N-SH cells [4] is recorded as “dramatically inhibit apoptosis of neuronal cells”.

With GVGAGY [SMP-4, GVGAGY], the “inhibition of apoptosis caused by high glucose level” value with SK-N-SH neuronal cells is listed as “effectively inhibits apoptosis”. Further, in the test on SK-N-SH cells [1], the “effect on reactive oxygen species compared to oligo 1” value is reported as “a little enhanced effects compared to the oligo 1” and the “levels of reactive oxygen species” value was “decrease in levels of reactive oxygen species at similar extent”. The nuclear fragmentation entry in the test with SK-N-SH cells [2] is on record as “greatly decreased”. The “abnormality of mitochondrial membrane (TMRE fluorescence)” value with SK-N-SH cells [3] is “little or no abnormality of mitochondrial membrane”. In the test with SK-N-SH cells [4], the “inhibition of apoptosis of neuronal cells (cell viability, MTT)” value is on record as “dramatically inhibit apoptosis of neuronal cells”.

With `COc1ccc2[nH]cc(CCNC(C)=O)c2c1` [melatonin], the “decline in learning and memory abilities (passive avoidance)” value in test [5] is “prevent the decline in learning and memory abilities”. In addition, the “relief of behavior disorders (amphetamine-induced asymmetric rotation)” value in [6] is “contribute to the relief of behavior disorders”. In addition, the “prevention of death of dopaminergic neurons (neurotoxicity of 6-OHDA)” value with dopaminergic neurons is on record as “effectively prevented”.
